Reference: PubChem BioAssay (NCI)
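Tested at 5 concentrations; 48 h exposure; 96-well plates; endpoints linearly interpolated, else capped at highest concentration. The concentration for full growth arrest is given as TGI.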

Columns and labels:
Assay in all cases: inhibition of tumour cell growth, NCI panel, 48 h
A549 NSCLC = system: A549 NSCLC
ACHN renal = system: ACHN renal
COLO 205 colon = system: COLO 205 colon
EKVX NSCLC = system: EKVX NSCLC
HOP-18 NSCLC = system: HOP-18 NSCLC
M19-MEL melanoma = system: M19-MEL melanoma
NCI-H226 lung = system: NCI-H226 lung
OVCAR-4 ovarian = system: OVCAR-4 ovarian
RPMI-8226 leukemia = system: RPMI-8226 leukemia
RXF-631 renal = system: RXF-631 renal
SF-295 CNS = system: SF-295 CNS
SF-539 CNS = system: SF-539 CNS
SK-MEL-5 melanoma = system: SK-MEL-5 melanoma
SK-OV-3 ovarian = system: SK-OV-3 ovarian
SNB-78 CNS = system: SNB-78 CNS
SW-620 colon = system: SW-620 colon
NCI-H23 lung = system: NCI-H23 lung
A498 renal = system: A498 renal
NCI/ADR-RES ovarian = system: NCI/ADR-RES ovarian
PC-3 prostate = system: PC-3 prostate

Measured: TGI

N#CCCN(CCC#N)c1ccc(/C=C(/NC(=O)Nc2ccccc2Cl)NC(=O)c2cc([N+](=O)[O-])ccc2Cl)cc1
not listed: NCI-H23 lung | A498 renal | NCI/ADR-RES ovarian | PC-3 prostate
> 100 µM: all other assays above

Cn1c(=O)[nH]c2c(c1=O)C(=O)CN2
not listed: ACHN renal | RXF-631 renal | NCI-H23 lung | A498 renal | NCI/ADR-RES ovarian | PC-3 prostate
> 100 µM: all other assays above

CN(C(=O)c1ccccc1)c1ccc2c(c1)C(=O)c1ccccc1C2=O
> 100 µM: ACHN renal | COLO 205 colon | EKVX NSCLC | M19-MEL melanoma | NCI-H226 lung | NCI-H23 lung | OVCAR-4 ovarian | RPMI-8226 leukemia | SF-295 CNS | SK-OV-3 ovarian | SW-620 colon

O=C(NCCN(CCNC(=O)c1cccc(=O)n1O)CCNC(=O)c1cccc(=O)n1O)c1cccc(=O)n1O
not listed: EKVX NSCLC | HOP-18 NSCLC | M19-MEL melanoma | RXF-631 renal | SNB-78 CNS
> 100 µM: all other assays above

COC(=O)C(=O)C(C(C)=O)C(=O)C(=O)Nc1ccc(C)cc1C (stereo unspecified)
not listed: HOP-18 NSCLC | RXF-631 renal | SNB-78 CNS | NCI/ADR-RES ovarian | PC-3 prostate
> 100 µM: all other assays above
